Experiments:
[1] = tested on: panel of experts in the sensory evaluation of foods and beverages; test: Sensory evaluation of sweetness onset and sweetness linger by expert panel; type: in vivo, human; set-up: key to Sweetness Linger: 0: no sweetness linger; 1: very slight sweetness linger; 2: slight sweetness linger; 3: moderate sweetness linger; 4: moderately high sweetness linger; 5: high sweetness linger; key to Sweetness Onset: 1: quick onset; 2: moderate onset; 3: slow onset; conditions: for Sweetness Linger: rating scale 0-5, sweetness 2-3 min after water rinse, for ranges the lowest rating of all levels is reported; for Sweetness Onset: rating scale 1-3, ca. 10 mL sample tasted and expectorated, sucrose and neotame controls for calibration
Method: An exemplary method of sensory evaluation is provided in the following protocol, similar to that described hereinabove. In this test protocol, none of the samples were swallowed. All samples were expectorated and the mouth was rinsed with water after the tasting. In step 1, the 10% sucrose control sample was tasted by distributing ca. 10 mL of sample quickly throughout the oral cavity, wherein the maximal “Sweetness Intensity” was measured. This intensity is defined as a 10 on a 0-15 scale where 0 is defined as no perceptible sweetness and 15, the sweetness of 15% sucrose. The “Overall Quality” of the taste was also measured in the sucrose control and was defined as a 6 on a 1-9 scale. Immediately upon sensing maximal sweetness, the sample was expectorated, the mouth was rinsed with water and the rate of sweetness decay (“Sweetness Linger”) and “Sweetness Onset” were measured, where attention was focused on the sweetness 2-3 min after the water rinse. The sweetness linger was rated by a panel of experts in the sensory evaluation of foods and beverages using the following scale: 0=no sweetness linger, 1=very slight sweetness linger, 2=slight sweetness linger, 3=moderate sweetness linger, 4=moderately high sweetness linger, 5=high sweetness linger. The sweetness onset was rated by a panel of experts using the following scale: 1=quick onset, 2=moderate onset, 3 slow onset. After sample tasting was complete, a salty oyster cracker was chewed followed by a water rinse, and at least 5 minutes followed before tasting the next sample.
The “Sweetness Linger” rating for sucrose observed by this protocol was defined as 0 and the “Sweetness Onset” was defined as 1. The Sweetness Onset and Sweetness Linger of a neotame control sample were defined as 3 and 5, respectively.
Following calibration with the sucrose and neotame control samples, the experimental samples were tasted by the same protocol, always allowing sufficient time between samples to ensure re-equilibration of the sensory system. Re-tasting of control samples during the course of the experiment was allowed and encouraged.
The comparison taste test was performed between two controls and addition of sweet taste improving additive on the onset and/or sweetness linger.
In Examples A1-A7, where there are ranges provided, the beverage samples were made with 5-7 levels from the top to the bottom of the range, using a 1:1 dilution of the corresponding sweet taste improving compositions. The sweetness linger rating reported was the most sugar-like in sweetness linger (the lowest numerical value) attained of all the samples (i.e., the shortest sweetness linger).

Osmolarity of solution = type: physicochemical; conditions: sucrose at 10%
Excerpt: Average concentrations of inorganic ions present in saliva, which are responsible for nearly all of the osmolarity of saliva, are as illustrated in Table 1 below. From the data shown, it is clear that saliva typically has an osmolarity of 70 mOsM. Sucrose at 10%, however, is 292 mOsM, more than 4-fold higher, and therefore will cause significant shrinkage of taste bud cell volume and signaling to the central nervous system (CNS). Osmolarity refers to the measure of osmoles of solute per liter of solution, wherein osmole is equal to the number of moles of osmotically active particles in an ideal solution (e.g., a mole of glucose is one osmole), whereas a mole of sodium chloride is two osmoles (one mole of sodium and one mole of chloride). Thus, in order to improve in the quality of taste of synthetic sweeteners, the osmotically active compounds or the compounds which impart osmolarity must not introduce significant off taste to the formulation.

Compound	Sweetness Linger [1]	Sweetness Onset [1]	Sweetness Linger ([1]; listed as sugar)	osmolarity (Osmolarity of solution) [mOsM]
COC(=O)[C@H](Cc1ccccc1)NC(=O)[C@H](CC(=O)O)NCCC(C)(C)C [neotame]	5	3		
OC[C@H]1O[C@@](CO)(O[C@H]2O[C@H](CO)[C@@H](O)[C@H](O)[C@H]2O)[C@@H](O)[C@@H]1O [sucrose]	0	1	1	292

From patent publication US20070275147A1, “SYNTHETIC SWEETENER COMPOSITIONS WITH IMPROVED TEMPORAL PROFILE AND/OR FLAVOR PROFILE, METHODS FOR THEIR FORMULATION, AND USES” (THE COCA-COLA COMPANY, priority 2005, published 2007)
